According to ChEMBL document CHEMBL4507319 (2021):

Experiments:
[1] = test system: Serine/threonine-protein kinase B-raf (Homo sapiens), P15056 [V600E]; details: Compound concentration 1000.0 nM
[2] = target: Macrophage colony-stimulating factor 1 receptor (Homo sapiens) (UniProt P07333); details: Compound concentration 1000.0 nM
[3] = target: T1, Serine/threonine-protein kinase ULK2 (Homo sapiens) (UniProt Q8IYT8); details: Compound concentration 1000.0 nM
T1 sequence (whole entry): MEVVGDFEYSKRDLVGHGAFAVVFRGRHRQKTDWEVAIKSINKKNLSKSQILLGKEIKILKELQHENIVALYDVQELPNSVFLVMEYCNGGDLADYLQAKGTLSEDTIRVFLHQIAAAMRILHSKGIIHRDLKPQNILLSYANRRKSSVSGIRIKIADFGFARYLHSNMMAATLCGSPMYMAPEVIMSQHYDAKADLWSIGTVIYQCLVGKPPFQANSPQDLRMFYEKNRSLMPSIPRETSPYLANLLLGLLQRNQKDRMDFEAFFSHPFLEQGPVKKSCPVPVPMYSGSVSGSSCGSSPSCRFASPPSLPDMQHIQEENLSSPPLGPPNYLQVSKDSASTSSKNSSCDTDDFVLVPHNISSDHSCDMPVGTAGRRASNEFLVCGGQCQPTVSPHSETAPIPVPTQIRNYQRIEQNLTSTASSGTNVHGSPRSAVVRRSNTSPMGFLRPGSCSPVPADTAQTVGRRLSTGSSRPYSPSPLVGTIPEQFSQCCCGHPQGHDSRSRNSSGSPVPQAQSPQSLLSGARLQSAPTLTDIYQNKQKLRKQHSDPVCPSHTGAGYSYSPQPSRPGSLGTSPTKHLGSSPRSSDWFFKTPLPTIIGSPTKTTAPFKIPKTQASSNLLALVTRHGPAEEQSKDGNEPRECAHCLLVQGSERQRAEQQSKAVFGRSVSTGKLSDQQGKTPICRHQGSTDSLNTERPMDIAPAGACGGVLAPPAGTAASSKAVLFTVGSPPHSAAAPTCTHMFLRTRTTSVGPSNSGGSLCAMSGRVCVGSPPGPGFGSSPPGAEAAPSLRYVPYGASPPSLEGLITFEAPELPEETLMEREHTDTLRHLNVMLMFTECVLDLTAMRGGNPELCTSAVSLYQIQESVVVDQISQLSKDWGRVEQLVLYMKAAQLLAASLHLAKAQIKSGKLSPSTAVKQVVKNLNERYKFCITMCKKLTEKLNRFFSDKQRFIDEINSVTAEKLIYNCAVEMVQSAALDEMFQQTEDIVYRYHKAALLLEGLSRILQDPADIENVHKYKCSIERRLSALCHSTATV

[4] = target: Dual specificity protein kinase CLK2 (Homo sapiens) (UniProt P49760); details: Compound concentration 1000.0 nM
Chain of Dual specificity protein kinase CLK2 (Homo sapiens) (P49760 whole entry, looked up): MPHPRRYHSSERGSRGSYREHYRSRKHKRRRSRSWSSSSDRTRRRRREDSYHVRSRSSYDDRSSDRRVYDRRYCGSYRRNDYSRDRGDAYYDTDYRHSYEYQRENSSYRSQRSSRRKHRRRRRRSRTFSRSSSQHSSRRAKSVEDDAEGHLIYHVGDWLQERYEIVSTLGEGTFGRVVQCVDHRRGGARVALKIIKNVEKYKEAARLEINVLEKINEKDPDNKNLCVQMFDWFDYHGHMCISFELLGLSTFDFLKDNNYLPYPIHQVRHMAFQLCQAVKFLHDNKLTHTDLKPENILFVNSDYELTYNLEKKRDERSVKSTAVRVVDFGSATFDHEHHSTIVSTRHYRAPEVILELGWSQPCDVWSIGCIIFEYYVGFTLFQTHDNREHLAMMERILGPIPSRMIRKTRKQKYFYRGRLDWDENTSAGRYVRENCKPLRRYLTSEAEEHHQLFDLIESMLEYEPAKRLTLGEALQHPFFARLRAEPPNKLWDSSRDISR

[5] = target: Ephrin type-A receptor 7 (Homo sapiens) (UniProt Q15375); details: Compound concentration 1000.0 nM
Chain of Ephrin type-A receptor 7 (Homo sapiens) (Q15375 28-998 limits assumed): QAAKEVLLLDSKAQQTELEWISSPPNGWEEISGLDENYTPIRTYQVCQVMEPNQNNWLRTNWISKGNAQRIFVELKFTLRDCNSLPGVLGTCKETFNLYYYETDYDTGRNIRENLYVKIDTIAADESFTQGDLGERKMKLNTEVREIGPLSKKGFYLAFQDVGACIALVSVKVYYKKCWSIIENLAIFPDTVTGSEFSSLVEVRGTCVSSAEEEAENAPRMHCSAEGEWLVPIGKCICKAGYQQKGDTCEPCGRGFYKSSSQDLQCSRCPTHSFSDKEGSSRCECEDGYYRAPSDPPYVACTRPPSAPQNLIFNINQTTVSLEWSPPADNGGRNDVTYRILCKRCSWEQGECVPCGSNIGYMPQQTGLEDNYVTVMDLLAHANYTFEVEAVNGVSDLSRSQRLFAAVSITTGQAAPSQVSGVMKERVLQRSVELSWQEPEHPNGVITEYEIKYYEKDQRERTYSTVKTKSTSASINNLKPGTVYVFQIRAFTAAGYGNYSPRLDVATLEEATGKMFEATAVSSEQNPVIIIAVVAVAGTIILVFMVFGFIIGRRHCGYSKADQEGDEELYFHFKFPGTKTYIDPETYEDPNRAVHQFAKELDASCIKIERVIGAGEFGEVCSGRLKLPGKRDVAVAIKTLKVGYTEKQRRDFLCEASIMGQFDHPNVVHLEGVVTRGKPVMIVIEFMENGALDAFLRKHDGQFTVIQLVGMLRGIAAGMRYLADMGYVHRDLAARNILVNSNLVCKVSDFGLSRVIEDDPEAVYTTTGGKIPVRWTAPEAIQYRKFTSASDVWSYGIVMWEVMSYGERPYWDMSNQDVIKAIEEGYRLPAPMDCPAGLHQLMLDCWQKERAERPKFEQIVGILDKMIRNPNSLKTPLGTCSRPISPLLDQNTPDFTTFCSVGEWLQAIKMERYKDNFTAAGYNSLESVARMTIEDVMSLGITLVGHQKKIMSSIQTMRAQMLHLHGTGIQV

[6] = target: Serine/threonine-protein kinase 10 (Homo sapiens) (UniProt O94804); details: Compound concentration 1000.0 nM
Chain of Serine/threonine-protein kinase 10 (Homo sapiens) (O94804 whole entry, looked up): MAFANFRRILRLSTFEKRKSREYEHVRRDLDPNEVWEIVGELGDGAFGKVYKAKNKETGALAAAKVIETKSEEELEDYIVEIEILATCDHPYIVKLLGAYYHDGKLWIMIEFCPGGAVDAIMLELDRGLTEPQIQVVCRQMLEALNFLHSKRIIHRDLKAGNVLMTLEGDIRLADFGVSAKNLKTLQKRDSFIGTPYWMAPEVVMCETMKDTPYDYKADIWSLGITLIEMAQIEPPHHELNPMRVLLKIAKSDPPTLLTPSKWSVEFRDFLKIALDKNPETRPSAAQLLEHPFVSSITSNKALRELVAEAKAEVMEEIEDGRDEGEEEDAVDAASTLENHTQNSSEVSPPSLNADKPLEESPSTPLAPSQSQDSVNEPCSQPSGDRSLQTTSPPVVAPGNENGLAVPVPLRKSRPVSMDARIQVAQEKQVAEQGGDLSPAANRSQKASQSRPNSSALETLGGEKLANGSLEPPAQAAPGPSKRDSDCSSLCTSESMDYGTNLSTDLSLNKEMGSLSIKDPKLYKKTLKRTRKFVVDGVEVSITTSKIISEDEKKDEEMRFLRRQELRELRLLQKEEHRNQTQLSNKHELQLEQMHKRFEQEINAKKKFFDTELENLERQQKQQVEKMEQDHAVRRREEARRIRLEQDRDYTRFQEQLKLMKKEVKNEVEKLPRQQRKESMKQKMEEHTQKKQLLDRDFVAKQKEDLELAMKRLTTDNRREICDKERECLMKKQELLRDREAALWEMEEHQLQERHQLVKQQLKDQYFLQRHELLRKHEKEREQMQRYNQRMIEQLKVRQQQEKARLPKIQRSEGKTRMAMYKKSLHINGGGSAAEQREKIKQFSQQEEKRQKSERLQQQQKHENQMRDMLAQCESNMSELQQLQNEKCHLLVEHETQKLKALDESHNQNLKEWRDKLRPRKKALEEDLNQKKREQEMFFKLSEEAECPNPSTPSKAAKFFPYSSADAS

[7] = target: Cyclin-dependent kinase 8 (Homo sapiens) (UniProt P49336); details: Compound concentration 1000.0 nM
[8] = target: MAP kinase-activated protein kinase 2 (Homo sapiens) (UniProt P49137); details: Compound concentration 1000.0 nM
[9] = target: Epithelial discoidin domain-containing receptor 1 (Homo sapiens) (UniProt Q08345); details: Compound concentration 1000.0 nM
[10] = target: Receptor tyrosine-protein kinase erbB-3 (Homo sapiens) (UniProt P21860); details: Compound concentration 1000.0 nM
[11] = target: T2, Serine/threonine-protein kinase MAK (Homo sapiens) (UniProt P20794); details: Compound concentration 1000.0 nM
T2 sequence (whole entry): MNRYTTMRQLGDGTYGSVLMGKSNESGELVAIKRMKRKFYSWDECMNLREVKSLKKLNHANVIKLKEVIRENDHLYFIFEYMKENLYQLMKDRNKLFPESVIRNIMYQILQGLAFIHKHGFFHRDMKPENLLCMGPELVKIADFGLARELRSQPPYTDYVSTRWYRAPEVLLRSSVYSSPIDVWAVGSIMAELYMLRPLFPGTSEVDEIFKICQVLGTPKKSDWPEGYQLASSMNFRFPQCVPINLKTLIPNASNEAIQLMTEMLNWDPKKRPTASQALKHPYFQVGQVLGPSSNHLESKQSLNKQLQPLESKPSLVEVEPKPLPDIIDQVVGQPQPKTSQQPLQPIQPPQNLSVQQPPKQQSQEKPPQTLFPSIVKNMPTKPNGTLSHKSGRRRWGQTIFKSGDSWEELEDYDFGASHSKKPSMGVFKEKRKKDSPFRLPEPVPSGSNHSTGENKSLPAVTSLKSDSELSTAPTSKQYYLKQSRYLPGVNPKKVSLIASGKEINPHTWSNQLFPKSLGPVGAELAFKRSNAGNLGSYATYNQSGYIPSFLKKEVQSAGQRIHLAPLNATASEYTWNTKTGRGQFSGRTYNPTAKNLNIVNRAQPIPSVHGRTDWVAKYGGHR

[12] = target: Histamine H1 receptor (Homo sapiens) (UniProt P35367); details: Compound concentration 10.0 uM
[13] = target: Mitogen-activated protein kinase 1 (Homo sapiens) (UniProt P28482); details: Compound concentration 1000.0 nM
Chain of Mitogen-activated protein kinase 1 (Homo sapiens) (P28482 whole entry): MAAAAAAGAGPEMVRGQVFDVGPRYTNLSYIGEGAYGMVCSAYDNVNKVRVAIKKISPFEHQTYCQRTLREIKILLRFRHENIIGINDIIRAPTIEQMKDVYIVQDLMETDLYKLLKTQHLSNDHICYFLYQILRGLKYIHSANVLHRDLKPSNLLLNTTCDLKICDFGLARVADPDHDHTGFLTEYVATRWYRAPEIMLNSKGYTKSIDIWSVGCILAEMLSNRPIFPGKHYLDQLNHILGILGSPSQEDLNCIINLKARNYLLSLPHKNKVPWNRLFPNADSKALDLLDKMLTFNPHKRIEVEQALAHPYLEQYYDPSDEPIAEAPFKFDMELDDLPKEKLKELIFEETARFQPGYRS

[14] = target: Activin receptor type-2B (Homo sapiens) (UniProt Q13705); details: Compound concentration 1000.0 nM
Chain of Activin receptor type-2B (Homo sapiens) (Q13705 whole entry): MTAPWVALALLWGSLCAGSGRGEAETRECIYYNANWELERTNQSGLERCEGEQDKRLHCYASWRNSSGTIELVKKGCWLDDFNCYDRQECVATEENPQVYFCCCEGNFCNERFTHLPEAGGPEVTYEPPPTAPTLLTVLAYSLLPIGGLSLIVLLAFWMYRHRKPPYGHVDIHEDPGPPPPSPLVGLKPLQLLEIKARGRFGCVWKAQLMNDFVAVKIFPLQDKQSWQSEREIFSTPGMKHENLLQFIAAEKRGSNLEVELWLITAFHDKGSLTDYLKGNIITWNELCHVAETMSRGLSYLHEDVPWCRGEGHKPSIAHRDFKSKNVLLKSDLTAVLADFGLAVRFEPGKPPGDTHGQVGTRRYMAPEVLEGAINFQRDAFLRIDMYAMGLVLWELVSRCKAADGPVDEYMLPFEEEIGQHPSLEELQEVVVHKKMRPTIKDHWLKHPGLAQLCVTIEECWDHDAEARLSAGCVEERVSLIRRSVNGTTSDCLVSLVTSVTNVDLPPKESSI

[15] = target: Insulin-like growth factor 1 receptor (Homo sapiens) (UniProt P08069); details: Compound concentration 1000.0 nM
[16] = target: Phosphatidylinositol 4-phosphate 5-kinase type-1 alpha (Homo sapiens) (UniProt Q99755); details: Compound concentration 1000.0 nM
[17] = target: Serine/threonine-protein kinase 24 (Homo sapiens, UniProt Q9Y6E0); details: Compound concentration 1000.0 nM
[18] = target: Mitogen-activated protein kinase 10 (Homo sapiens) (UniProt P53779); details: Compound concentration 1000.0 nM
[19] = test system: Tyrosine-protein kinase ABL1 (Homo sapiens), P00519 [Q252H]; details: Compound concentration 1000.0 nM
[20] = target: LIM domain kinase 2 (Homo sapiens) (UniProt P53671); details: Compound concentration 1000.0 nM
[21] = target: Bone morphogenetic protein receptor type-1A (Homo sapiens) (UniProt P36894); details: Compound concentration 1000.0 nM
Chain of Bone morphogenetic protein receptor type-1A (Homo sapiens) (P36894 whole entry): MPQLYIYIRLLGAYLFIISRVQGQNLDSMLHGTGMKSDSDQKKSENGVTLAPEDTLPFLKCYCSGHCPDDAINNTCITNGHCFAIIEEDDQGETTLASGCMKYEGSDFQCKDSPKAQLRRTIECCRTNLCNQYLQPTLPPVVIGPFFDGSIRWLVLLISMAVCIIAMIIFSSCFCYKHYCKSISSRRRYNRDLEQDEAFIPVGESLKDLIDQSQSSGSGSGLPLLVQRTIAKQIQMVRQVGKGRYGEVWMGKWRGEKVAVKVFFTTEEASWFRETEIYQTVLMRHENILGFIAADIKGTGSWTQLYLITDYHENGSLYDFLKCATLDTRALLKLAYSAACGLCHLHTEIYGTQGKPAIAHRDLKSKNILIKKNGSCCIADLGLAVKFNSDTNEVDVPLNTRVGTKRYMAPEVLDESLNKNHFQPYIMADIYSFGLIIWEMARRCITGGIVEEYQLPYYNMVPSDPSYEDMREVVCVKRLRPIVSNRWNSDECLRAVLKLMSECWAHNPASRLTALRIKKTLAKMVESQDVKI

Chain of Macrophage colony-stimulating factor 1 receptor (Homo sapiens) (P07333 whole entry): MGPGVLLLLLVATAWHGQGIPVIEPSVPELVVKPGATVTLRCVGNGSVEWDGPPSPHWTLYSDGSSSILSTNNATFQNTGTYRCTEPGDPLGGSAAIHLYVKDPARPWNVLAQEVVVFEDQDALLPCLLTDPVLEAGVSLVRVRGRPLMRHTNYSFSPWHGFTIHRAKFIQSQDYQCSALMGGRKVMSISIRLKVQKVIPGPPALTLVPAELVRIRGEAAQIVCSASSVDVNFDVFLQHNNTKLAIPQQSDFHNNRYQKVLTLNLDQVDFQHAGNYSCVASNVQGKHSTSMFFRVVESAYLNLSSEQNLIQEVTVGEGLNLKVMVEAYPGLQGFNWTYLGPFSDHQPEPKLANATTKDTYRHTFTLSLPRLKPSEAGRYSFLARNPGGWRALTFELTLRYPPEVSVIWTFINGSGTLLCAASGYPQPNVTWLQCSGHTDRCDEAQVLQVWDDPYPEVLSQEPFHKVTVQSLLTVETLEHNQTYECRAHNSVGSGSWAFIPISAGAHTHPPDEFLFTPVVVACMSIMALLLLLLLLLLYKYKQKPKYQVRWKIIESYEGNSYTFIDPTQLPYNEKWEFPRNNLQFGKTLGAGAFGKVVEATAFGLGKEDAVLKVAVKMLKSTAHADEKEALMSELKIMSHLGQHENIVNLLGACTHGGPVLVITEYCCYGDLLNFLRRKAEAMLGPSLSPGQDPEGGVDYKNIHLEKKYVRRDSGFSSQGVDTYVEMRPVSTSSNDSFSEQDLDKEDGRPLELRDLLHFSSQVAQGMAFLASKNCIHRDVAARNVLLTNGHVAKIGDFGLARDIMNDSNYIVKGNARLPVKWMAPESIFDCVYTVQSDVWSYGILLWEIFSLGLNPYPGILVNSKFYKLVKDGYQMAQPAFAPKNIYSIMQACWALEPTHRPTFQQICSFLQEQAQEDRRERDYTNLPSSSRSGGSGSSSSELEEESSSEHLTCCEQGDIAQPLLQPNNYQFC

Work on `CCc1ccccc1C(=O)Nc1n[nH]c2c(C)c(F)c(C3C(C#N)=C(C)N(C)C(C)=C3C#N)cc12` [BAY-3827] yielded a residual activity [1] of 100%, a residual activity [2] of 100% and a residual activity [3] of 100%. The residual activity [4] was 55%, the residual activity [5] was 81% and the residual activity [6] was 100%. It also gave a residual activity [7] of 71%, a residual activity [8] of 100% and a residual activity [9] of 48%. It also gave a residual activity [10] of 91%, a residual activity [11] of 100% and an inhibition [12] of 6.23%. For the same compound, the residual activity [13] was 86%, the residual activity [14] was 99% and the residual activity [15] was 87%. The residual activity [16] was 100%, the residual activity [17] was 90% and the residual activity [18] was 92%. The residual activity [19] was 82%, the residual activity [20] was 99% and the residual activity [21] was 87%.
Compound `CC1=C(C#N)C(c2ccc3c(c2)c(NC(=O)c2ccccc2C)nn3C)C(C#N)=C(C)N1` [BAY-974] has a residual activity [1] of 62%, a residual activity [2] of 99% and a residual activity [3] of 72%. For the same compound, the residual activity [4] was 75%, the residual activity [5] was 100% and the residual activity [6] was 68%. For the same compound, the residual activity [7] was 97%, the residual activity [8] was 84% and the residual activity [9] was 74%. The residual activity [10] was 100%, the residual activity [11] was 100% and the inhibition [12] was 0.94%. For the same compound, the residual activity [13] was 80%, the residual activity [14] was 100% and the residual activity [15] was 96%. It also gave a residual activity [16] of 100%, a residual activity [17] of 100% and a residual activity [18] of 100%. The residual activity [19] was 100%, the residual activity [20] was 99% and the residual activity [21] was 100%.
